Assay results from ChEMBL document CHEMBL6096673, “In Pursuit of Lead Innovation: Pharmaceutically Important and Distinct Amide-Free Succinate Dehydrogenase Inhibitors” (J Med Chem, 2025).
Values after ≈ are worked out from the molar mass of the structure shown.

How the values were obtained:
Liver carboxylesterase = biological target: T1, Liver carboxylesterase (Sus scrofa, UniProt Q29550); experiment: Inhibition of porcine liver carboxylesterase
T1 sequence (Q29550 whole entry): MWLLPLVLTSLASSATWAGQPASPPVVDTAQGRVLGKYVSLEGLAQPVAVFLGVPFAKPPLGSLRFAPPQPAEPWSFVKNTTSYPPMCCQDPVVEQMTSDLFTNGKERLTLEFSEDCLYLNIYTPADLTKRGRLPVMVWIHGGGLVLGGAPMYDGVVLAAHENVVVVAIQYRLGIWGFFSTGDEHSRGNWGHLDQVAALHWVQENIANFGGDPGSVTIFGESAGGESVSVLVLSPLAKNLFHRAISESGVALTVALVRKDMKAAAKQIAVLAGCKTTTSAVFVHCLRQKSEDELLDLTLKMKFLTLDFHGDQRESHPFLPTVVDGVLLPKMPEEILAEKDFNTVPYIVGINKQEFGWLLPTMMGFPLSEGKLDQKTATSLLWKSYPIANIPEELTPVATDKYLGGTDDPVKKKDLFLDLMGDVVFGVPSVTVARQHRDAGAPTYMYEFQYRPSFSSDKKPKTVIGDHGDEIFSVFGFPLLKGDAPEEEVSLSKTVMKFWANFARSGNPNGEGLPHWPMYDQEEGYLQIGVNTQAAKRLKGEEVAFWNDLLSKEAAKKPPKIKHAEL

Rhizoctonia solani = experiment: Antifungal activity against Rhizoctonia solani; assay type: functional, organism-based
[1] = system: Trichophyton mentagrophytes; experiment: Antifungal activity against Trichophyton mentagrophytes; assay type: functional, organism-based
Plasmodium falciparum = experiment: Antiplasmodial activity against Plasmodium falciparum; assay type: functional, organism-based
Sclerotinia sclerotiorum [2] = experiment: Antifungal activity against Sclerotinia sclerotiorum; assay type: functional, organism-based
[3] = Binding affinity to carboxylesterase (unknown origin) assessed as inhibition constant by fluorescence analysis; set-up: species or system Homo sapiens
Sclerotinia sclerotiorum [4] = experiment: Antifungal activity against Sclerotinia sclerotiorum assessed as inhibition of fungal growth; assay type: functional, organism-based
Fusarium graminearum = experiment: Antifungal activity against Gibberella zeae; assay type: functional, organism-based
Alternaria solani = experiment: Antifungal activity against Alternaria solani; assay type: functional, organism-based
Botrytis cinerea = experiment: Antifungal activity against Botrytis cinerea; assay type: functional, organism-based

## COc1nc(O)c(C(=O)[C@@H](C)C[C@@H](C)[C@@H](Cl)CCl)c(O)c1OC
Liver carboxylesterase
  IC50: 7 nM

## COc1nc(O)c(C(=O)[C@H](C)C[C@H](C)[C@@H](Cl)CCl)c(O)c1OC
Liver carboxylesterase
  IC50: 2000 nM

## COC(=O)C1=C(C)OC(N)=C(C#N)C1c1ccc(Cl)s1 (configuration not stated)
Rhizoctonia solani
  IC50: 1.06 µg/mL (≈ 3.41 µM)

## COc1nc(O)c(C(=O)[C@@H](C)C[C@H](C)[C@H](Cl)CCl)c(O)c1OC
Liver carboxylesterase
  IC50: 22.4 nM

## Cn1cc(/C=N\Oc2cccc(I)c2)c(C(F)F)n1
Rhizoctonia solani
  IC50: 1.43 µg/mL (≈ 3.79 µM)

## Cn1cc(/C=N/Oc2cccc(I)c2)c(C(F)F)n1
Rhizoctonia solani
  IC50: 1.57 µg/mL (≈ 4.16 µM)

## Cn1cc(/C=N/Oc2cccc(F)c2)c(C(F)F)n1
Rhizoctonia solani
  IC50: 2.94 µg/mL (≈ 10.9 µM)

## Cn1cc(/C=N/Oc2cccc(Br)c2)c(C(F)F)n1
Rhizoctonia solani
  IC50: 4.53 µg/mL (≈ 13.7 µM)

## Cc1cc(O)c2c(c1)O[C@@]1(C)CC[C@H]3C(C)(C)CCC[C@]34CO[C@@H]2[C@H]41 [SICCANIN]
[1]
  IC50: 0.3 µg/mL (≈ 0.876 µM)
Plasmodium falciparum
  IC50: 8400 nM

## COc1[nH]c(=O)c(C(=O)[C@@H](C)C[C@H](C)[C@@H](Cl)CCl)c(O)c1OC [ATPENIN A5]
Liver carboxylesterase
  IC50: 14 nM

## O=C(NCCc1ncc(C(F)(F)F)cc1Cl)c1ccccc1C(F)(F)F [FLUOPYRAM]
Liver carboxylesterase
  IC50: < 1000 nM

## C=CCC/C=C\C=C/CCCCCC[C@H]1CC[C@H]([C@@H]2CC[C@@H](CC(=O)OC)OO2)O1
Liver carboxylesterase
  IC50: < 1000 nM

## Cc1ccc(-c2cc(-c3ccc(Cl)cc3)nc(-n3cccn3)n2)o1
Sclerotinia sclerotiorum [2]
  EC50: 0.08 µg/mL (≈ 0.238 µM)

## O=C(CC(=O)C(F)(F)F)c1cccs1
[3]
  Ki: 610 nM

## CCOC(=O)C(C#N)C(CC(=O)c1ccc(Br)cc1)c1ccco1 (configuration not stated)
Sclerotinia sclerotiorum [2]
  EC50: 3.3 µg/mL (≈ 8.46 µM)

## CC[C@@H](C)C[C@H](C)C(=O)c1c(O)nc(OC)c(OC)c1O
Liver carboxylesterase
  IC50: 2100 nM

## C=CCC/C=C\C=C/CCCCCCC1CC[C@@H]([C@@H]2CC[C@@H](CC(=O)OC)OO2)O1 (single isomer, unassigned)
Liver carboxylesterase
  IC50: < 1000 nM

## Cn1cc(/C=N\Oc2cccc(F)c2)c(C(F)F)n1
Rhizoctonia solani
  IC50: 1.35 µg/mL (≈ 5.01 µM)

## Cc1ccc(-c2cc(-c3ccco3)nc(C)n2)cc1
Sclerotinia sclerotiorum [2]
  EC50: 0.07 µg/mL (≈ 0.28 µM)

## COc1nc(O)c(C(=O)[C@@H](C)C[C@H](C)[C@H](C)Cl)c(O)c1OC
Liver carboxylesterase
  IC50: 110 nM

## COc1nc(O)c(C(=O)CC[C@H](C)[C@@H](Cl)CCl)c(O)c1OC
Liver carboxylesterase
  IC50: 315 nM

## COc1cc(-c2ccc(Br)o2)cc(-c2ccc(Br)cc2)n1
Sclerotinia sclerotiorum [4]
  IC50: 1.15 µg/mL (≈ 2.81 µM)

## Cn1cc(/C=N\Oc2cccc(Br)c2)c(C(F)F)n1
Rhizoctonia solani
  IC50: 0.21 µg/mL (≈ 0.636 µM)

## Fc1ccc(C2C=C(c3ccc4c(c3)OCO4)NC(=S)N2)cc1 (configuration not stated)
Fusarium graminearum
  EC50: 0.57 µg/mL (≈ 1.74 µM)
Alternaria solani
  EC50: 0.07 µg/mL (≈ 0.213 µM)
Botrytis cinerea
  EC50: 0.44 µg/mL (≈ 1.34 µM)
